# Experimental data taken from PubChem BioAssay AID216 (DTP/NCI, 2004).
# Values joined by “and” are separate entries in the source; they are usually repeats but may differ in a detail not shown here. Equal values may be shown once. Toxic doses and inconclusive results are not listed.
# System: BDF1 mice, P288 leukemia ip, survival T/C
# Experiment: NCI In Vivo Anticancer Drug Screen. Data for tumor model P288 Lymphocytic Leukemia (intraperitoneal) in B6D2F1 (BDF1) mice
# Settings: endpoint: survival time, mean or median, higher = longer survival
# Procedure: The antitumor activity of compounds was measured in mice bearing transplantable tumors. Survival or tumor size were measured and the results are expressed as the measurement made in the treated group (T) divided by the measurement made in the vehicle treated control group (C). The tumor model used in this assay is P288 Lymphocytic Leukemia (intraperitoneal) in B6D2F1 (BDF1) mice
# [1] = dose: 5.0 mg/kg/injection, schedule: Q01DX010 (ip), vehicle: saline
# [2] = dose: 10.0 mg/kg/injection, schedule: Q01DX010 (ip), vehicle: saline
# [3] = dose: 20.0 mg/kg/injection, schedule: Q01DX010 (ip), vehicle: saline
# [4] = dose: 25.0 mg/kg/injection, schedule: Q01DX Z (ip), vehicle: carboxymethylcellulose (CMC)
# [5] = dose: 50.0 mg/kg/injection, schedule: Q01DX Z (ip), vehicle: carboxymethylcellulose (CMC)
SMILES,T/C [1],T/C [2],T/C [3],"T/C (dose: 0.2 mg/kg/injection, schedule: Q01DX Z (ip), vehicle: water)","T/C (dose: 0.8 mg/kg/injection, schedule: Q01DX Z (ip), vehicle: water)","T/C (dose: 1.6 mg/kg/injection, schedule: Q01DX Z (ip), vehicle: water)","T/C (dose: 3.1 mg/kg/injection, schedule: Q01DX Z (ip), vehicle: water)","T/C (dose: 6.25 mg/kg/injection, schedule: Q01DX Z (ip), vehicle: carboxymethylcellulose (CMC))","T/C (dose: 6.3 mg/kg/injection, schedule: Q01DX Z (ip), vehicle: water)","T/C (dose: 12.5 mg/kg/injection, schedule: Q01DX Z (ip), vehicle: carboxymethylcellulose (CMC))",T/C [4],"T/C (dose: 40.0 mg/kg/injection, schedule: Q01DX010 (ip), vehicle: saline)",T/C [5],"T/C (dose: 16.0 mg/kg/injection, schedule: Q01DX010 (ip), vehicle: saline)","T/C (dose: 32.0 mg/kg/injection, schedule: Q01DX010 (ip), vehicle: saline)","T/C (dose: 64.0 mg/kg/injection, schedule: Q01DX010 (ip), vehicle: saline)","T/C (dose: 100.0 mg/kg/injection, schedule: Q01DX Z (ip), vehicle: carboxymethylcellulose (CMC))","T/C (dose: 128.0 mg/kg/injection, schedule: Q01DX010 (ip), vehicle: saline)","T/C (dose: 200.0 mg/kg/injection, schedule: Q01DX Z (ip), vehicle: carboxymethylcellulose (CMC))"
O=c1[nH]cc(F)c(=O)[nH]1,115 % of control and 118 % of control and 100 % of control,122 % of control,155 % of control and 190 % of control and 193 % of control,,,,,,,,,,,,,,,,
CN(C)c1ccc(/C=C/c2ccnc3ccccc23)cc1,88 % of control,88 % of control and 90 % of control,88 % of control,117 % of control,98 % of control,92 % of control,91 % of control,108 % of control,87 % of control,108 % of control,114 % of control,88 % of control and 90 % of control,111 % of control,,,,,,
CCCCn1cnc2c(=S)nc[nH]c21,,,,,,,,,,,108 % of control,,102 % of control,88 % of control and 94 % of control,88 % of control and 100 % of control,88 % of control and 100 % of control,106 % of control and 113 % of control,100 % of control,100 % of control
